Reference: ChEMBL document CHEMBL3867466, “Synthesis and biological evaluation of novel 2,4,5-triarylimidazole-1,2,3-triazole derivatives via click chemistry as α-glucosidase inhibitors” (Bioorg Med Chem Lett, 2016)

Molecular target: Alpha-glucosidase MAL12 (Saccharomyces cerevisiae) (UniProt P53341)
Test: Potency index, ratio of acarbose IC50 to compound IC50 for bakers yeast alpha-glucosidase

Chain of Alpha-glucosidase MAL12 (Saccharomyces cerevisiae) (P53341 whole entry, looked up): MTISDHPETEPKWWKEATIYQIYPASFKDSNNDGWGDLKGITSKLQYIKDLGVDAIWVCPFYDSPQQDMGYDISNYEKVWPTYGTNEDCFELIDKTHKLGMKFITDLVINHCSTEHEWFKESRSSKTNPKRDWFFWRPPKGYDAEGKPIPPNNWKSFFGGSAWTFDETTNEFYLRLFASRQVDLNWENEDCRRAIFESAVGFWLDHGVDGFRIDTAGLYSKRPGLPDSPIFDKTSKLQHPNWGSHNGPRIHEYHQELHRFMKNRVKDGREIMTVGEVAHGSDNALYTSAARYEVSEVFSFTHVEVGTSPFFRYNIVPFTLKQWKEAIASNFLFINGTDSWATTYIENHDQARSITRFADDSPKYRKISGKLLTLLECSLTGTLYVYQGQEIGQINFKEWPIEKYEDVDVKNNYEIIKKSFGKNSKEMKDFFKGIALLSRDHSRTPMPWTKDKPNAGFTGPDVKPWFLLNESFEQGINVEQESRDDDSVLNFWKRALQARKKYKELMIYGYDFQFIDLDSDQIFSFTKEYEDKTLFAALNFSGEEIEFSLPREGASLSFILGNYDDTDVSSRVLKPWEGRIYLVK

Question: CCOc1ccccc1NC(=O)Cn1cc(Cn2c(-c3cccc(Br)c3)nc(-c3ccccc3)c2-c2ccccc2)nn1 was tested. Which Ratio IC50 did it give?
Answer: Its Ratio IC50 is 52.
